≈ marks a conversion by molar mass, not a printed value. Like-named read-outs stand apart in the source and are kept apart here.
Legend:
[1] = target: T1, human MCH receptor (Homo sapiens, UniProt Q99705); experiment: calcium mobilization assay (FLIPR), functional IC50 of MCH1R antagonists; assay type: cell-based
T1 construct: expressed in transfected cells
From the text: A difference from the reference was, however, the use of the plasmid pEAK8 from EDGE Biosystems (USA) for the construction of the expression vector. The host used for the transfection was a transformed HEK cell line named “PEAK Stable Cells” (likewise from EDGE Biosystems). Functional measurements of the cellular calcium flux after addition of agonist (MCH) in the presence of ligand of the invention took place with the aid of the FLIPR apparatus from Molecular Devices (USA), using protocols of the apparatus manufacturer.

[2] = nephelometric (kinetic) solubility determination, phosphate buffer pH 7.4; assay type: physicochemical; conditions: for solubility kinetic: aqueous buffer, kinetic from dmso stock
Method: A DMSO solution of the test compound (2.5 mM; 0.5 μl) is pipetted into 200 μl of an aqueous test solution (e.g. phosphate-buffered saline, 10×, 1M, Sigma, adjusted to 10 mM, pH 7.4) in a 96-well microtiter plate, and the turbidity is measured at the resulting theoretical concentration for the test compound of 6.25 μM using a nephelometer (e.g. Nephelostar Galaxy, BMG Labtech). The concentration of the test compound in the aqueous test solution is then raised to a theoretical 12.5 μM by adding further DMSO solution (2.5 mM; 0.5 μl), and the turbidity measurement is repeated. Further additions of DMSO solutions (1 μl, 2.5 mM; 0.5 μl, 10 mM; then 9×1 μl, 10 mM resulting in theoretical concentrations of 25 μM, 50 μM, 100 μM, 150 μM, 200 μM, 250 μM, 300 μM, 350 μM, 400 μM, 450 μM and 500 μM) with turbidity measurement in between complete the measurement process.
Evaluation: The turbidity values from the nephelometer are plotted against the theoretical concentration of the test compound in the aqueous test solution. As soon as a significant turbidity is detected (e.g. 5 times above the control value of the aqueous test solution) at a theoretical concentration, the level of concentration below this is stated to be the solubility limit of the test compound in the test solution. Thus, the maximum possible measurement range emerges as values<6.25 μM, 6.25-500 μM and >500 μM.

[3] = recombinant HEK293 cell line expressing the human MCH receptor, calcium flux after addition of agonist (MCH), read-out: IC50
[4] = nephelometry, Table 8, reference compounds versus inventive examples

T1 sequence (Q99705 whole entry): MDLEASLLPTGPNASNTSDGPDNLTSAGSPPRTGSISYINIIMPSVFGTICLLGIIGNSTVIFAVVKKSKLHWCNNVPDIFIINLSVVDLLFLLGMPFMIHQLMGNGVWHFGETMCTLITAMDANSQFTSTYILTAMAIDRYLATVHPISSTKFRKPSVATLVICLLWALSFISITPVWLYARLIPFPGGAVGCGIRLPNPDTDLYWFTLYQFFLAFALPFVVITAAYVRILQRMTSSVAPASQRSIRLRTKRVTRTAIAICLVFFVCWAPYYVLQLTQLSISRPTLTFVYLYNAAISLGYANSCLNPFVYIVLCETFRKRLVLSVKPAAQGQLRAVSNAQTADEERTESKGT

SMILES | IC50 [1, 3] [nM] | solubility kinetic ([2]; nephelometric, Table 7) [µg/mL] | pH 7.4 (solubility) [2, 4] [mg/ml] | IC50 [1] [nM] | solubility kinetic [2, 4] [µg/mL]
CN(C(=O)c1ccc(OCC2CC2)cc1)[C@H]1CCc2cc(CNCC3CCOCC3)ccc2C1 [Example 1-01, 4-Cyclopropylmethoxy-N-methyl-N—((S)-6-{[(tetrahydropyran-4-ylmethyl)amino]methyl}-1,2,3,4-tetrahydronaphthalen-2-yl)benzamide] | 121 | 153 (≈ 331 µM) |  |  | 
CN(C(=O)c1ccc(OCC2CC2)cc1)[C@H]1CCc2cc(CNC[C@@H]3CCCO3)ccc2C1 [Example 1-02] | 215 | > 281 |  |  | 
CN(C(=O)c1ccc(OCC2CC2)cc1)[C@H]1CCc2cc(CNC[C@H]3CCCO3)ccc2C1 [Example 1-03] | 130 | > 281 |  |  | 
CN(C(=O)c1ccc(OCC2CC2)cc1)[C@H]1CCc2cc(CNCC3CCOC3)ccc2C1 (stereo partly drawn) [Example 1-04] | 116 | > 281 |  |  | 
CN(C(=O)c1ccc(OCC2CC2)cc1)[C@H]1CCc2cc(CNCC3(C)COC3)ccc2C1 [Example 1-05] | 125 | > 281 |  |  | 
CN(C(=O)c1ccc(OCC2CC2)cc1)[C@H]1CCc2cc(CNCC3CCCOC3)ccc2C1 (stereo partly drawn) [Example 1-07] | 154 | > 288 |  |  | 
CN(C(=O)c1ccc(OCC2CC2)cc1)[C@H]1CCc2cc(CNCC3(C)CCOCC3)ccc2C1 [Example 1-08] | 126 | > 295 |  |  | 
CN(C(=O)c1ccc(OCC2CC2)cc1)[C@H]1CCc2cc(CNCC3COCCO3)ccc2C1 (stereo partly drawn) [Example 1-09] | 124 | > 289 |  |  | 
CN(C(=O)c1ccc(OCC2CC2)cc1)[C@H]1CCc2cc(CNCCC3CCCO3)ccc2C1 (stereo partly drawn) [Example 1-10] | 140 | > 288 |  |  | 
CN(C(=O)c1ccc(OCC2CC2)cc1)[C@H]1CCc2cc(CNCC3(C)CCCO3)ccc2C1 (stereo partly drawn) [Example 1-11] | 172 | > 288 |  |  | 
CC1CCC(CNCc2ccc3c(c2)CC[C@H](N(C)C(=O)c2ccc(OCC4CC4)cc2)C3)O1 (stereo partly drawn) [Example 1-12] | 165 | > 288 |  |  | 
CN(Cc1ccc2c(c1)CC[C@H](N(C)C(=O)c1ccc(OCC3CC3)cc1)C2)CC1CCOCC1 [Example 1-13] | 284 | > 295 |  |  | 
CCN(Cc1ccc2c(c1)CC[C@H](N(C)C(=O)c1ccc(OCC3CC3)cc1)C2)CC1CCOCC1 [Example 1-14] | 507 | 30 (≈ 61.1 µM) |  |  | 
CN(C(=O)c1ccc(C2CCCCC2)cc1)[C@H]1CCc2cc(CNCC3CCOCC3)ccc2C1 [Example 2-01, 4-Cyclohexyl-N-methyl-N—((S)-6-{[(tetrahydropyran-4-ylmethyl)amino]methyl}-1,2,3,4-tetrahydronaphthalen-2-yl)benzamide] | 1330 | > 294 |  |  | 
CN(C(=O)c1ccc(NC(=O)C(F)(F)F)cc1)[C@H]1CCc2cc(CNCC3CCOCC3)ccc2C1 [Example 2-02] | 1360 | > 309 |  |  | 
CC1CCN(c2ccc(C(=O)N(C)[C@H]3CCc4cc(CNCC5CCOCC5)ccc4C3)cc2)CC1 [Example 2-03] | 1070 | > 302 |  |  | 
O=C(N[C@H]1CCc2cc(CNCC3CCOCC3)ccc2C1)c1ccc(NC(=O)C(F)(F)F)cc1 [Example 2-04] | 3690 | 15 (≈ 30.6 µM) |  |  | 
CC1CCN(c2ccc(C(=O)N[C@H]3CCc4cc(CNCC5CCOCC5)ccc4C3)cc2)CC1 [Example 2-05] | 248 | 15 (≈ 31.5 µM) |  |  | 
CCCCOc1ccc(C(=O)N(C)[C@H]2CCc3cc(CNCC4CCOCC4)ccc3C2)cc1 [Example 2-06] | 146 | 203 (≈ 437 µM) |  |  | 
CCCCOc1ccc(C(=O)N(C)[C@H]2CCc3cc(CNCC4CCOCC4)ccc3C2)nc1 [Example 2-07] | 141 | > 290 |  |  | 
CCCOc1ccc(C(=O)N(C)[C@H]2CCc3cc(CNCC4CCOCC4)ccc3C2)nc1 [Example 2-08] | 220 | > 283 |  |  | 
CC(C)COc1ccc(C(=O)N(C)[C@H]2CCc3cc(CNCC4CCOCC4)ccc3C2)nc1 [Example 2-09] | 360 | > 290 |  |  | 

SMILES | IC50 [1, 3] [nM] | solubility kinetic ([2]; nephelometric, Table 7) [µg/mL] | pH 7.4 (solubility) [2, 4] [mg/ml] | IC50 [1] [nM] | solubility kinetic [2, 4] [µg/mL]
CN(C(=O)c1ccc(OCC2CC2)cn1)[C@H]1CCc2cc(CNCC3CCOCC3)ccc2C1 [Example 3, 5-Cyclopropylmethoxypyridine-2-carboxylic acid methyl-((S)-6-{[(tetrahydropyran-4-ylmethyl)amino]methyl}-1,2,3,4-tetrahydronaphthalen-2-yl)amide] | 180 | > 289 |  |  | 
CN(C(=O)c1ccc(OCC2CC2)cc1)[C@H]1CCc2cc([C@H]3CCCN3)ccc2C1 [Example 4-01, 4-Cyclopropylmethoxy-N-methyl-N—((S)—(R)-6-pyrrolidin-2-yl-1,2,3,4-tetrahydronaphthalen-2-yl)benzamide] | 136 | > 221 |  |  | 
C[C@H]1CC[C@H](c2ccc3c(c2)CC[C@H](N(C)C(=O)c2ccc(OCC4CC4)cc2)C3)N1 [Example 4-02, 4-Cyclopropylmethoxy-N-methyl-N—[(S)-6-((2R,5S)-5-methylpyrrolidin-2-yl)-1,2,3,4-tetrahydronaphthalen-2-yl]benzamide] | 228 | 10 (≈ 23.9 µM) |  |  | 
CN(C(=O)c1ccc(OCC2CC2)cc1)[C@H]1CCc2cc(C3CCCCN3)ccc2C1 (stereo partly drawn) [Example 4-03, 4-Cyclopropylmethoxy-N-methyl-N—((S)-6-piperidin-2-yl-1,2,3,4-tetrahydronaphthalen-2-yl)-benzamide] | 788 | 10 (≈ 23.9 µM) |  |  | 
CN(C(=O)c1ccc(OCC2CC2)cn1)[C@H]1CCc2cc(C3CCCN3)ccc2C1 (stereo partly drawn) [Example 4-04, N-Methyl-N—((S)-6-pyrrolidin-2-yl-1,2,3,4-tetrahydronaphthalen-2-yl)-5-cyclopropylmethoxypyridine-2-carboxamide] | 703 | > 41 |  |  | 
CN1CCC[C@@H]1c1ccc2c(c1)CC[C@H](N(C)C(=O)c1ccc(OCC3CC3)cc1)C2 [Example 5-01] | 137 | > 266 |  |  | 
CCN1CCC[C@@H]1c1ccc2c(c1)CC[C@H](N(C)C(=O)c1ccc(OCC3CC3)cc1)C2 [Example 5-02] | 152 | > 273 |  |  | 
CN(C(=O)c1ccc(OCC2CC2)cc1)[C@H]1CCc2cc([C@H]3CCCN3CC3CCOCC3)ccc2C1 [Example 5-03] | 858 | 15 (≈ 29.8 µM) |  |  | 
C[C@H]1CC[C@H](c2ccc3c(c2)CC[C@H](N(C)C(=O)c2ccc(OCC4CC4)cc2)C3)N1C [Example 5-04] | 134 | > 273 |  |  | 
CCN1[C@@H](c2ccc3c(c2)CC[C@H](N(C)C(=O)c2ccc(OCC4CC4)cc2)C3)CC[C@@H]1C [Example 5-05] | 519 | 168 (≈ 376 µM) |  |  | 
CCN1CCCCC1c1ccc2c(c1)CC[C@H](N(C)C(=O)c1ccc(OCC3CC3)cc1)C2 (stereo partly drawn) [Example 5-07] | 370 | > 280 |  |  | 
CN1CCCC1c1ccc2c(c1)CC[C@H](N(C)C(=O)c1ccc(OCC3CC3)cn1)C2 (stereo partly drawn) [Example 5-10] | 646 | 13 (≈ 31 µM) |  |  | 
CCCCOc1ccc(C(=O)N[C@H]2CCc3cc(CN4CCCC4)ccc3C2)cc1 [Example 6-01] | 127 | 13 (≈ 32 µM) | 0.013 |  | 
CC[C@H](O)COc1ccc(C(=O)N[C@H]2CCc3cc(CN4CCCC4)ccc3C2)cc1 [Example 6-02] | 223 | > 268 | >0.268 |  | 
CCCCOc1ccc(C(=O)N(C)[C@H]2CCc3cc(CN4CCCC4)ccc3C2)cc1 [Example 6-03] | 327 | > 267 | >0.267 |  | 
CC[C@H](O)COc1ccc(C(=O)N(C)[C@H]2CCc3cc(CN4CCCC4)ccc3C2)cc1 [Example 6-04] | 1200 | > 275 | >0.275 |  | 
CN(C(=O)c1ccc(OCC2CC2)cc1)[C@H]1CCc2cc(CN3CCCC3)ccc2C1 [Example 6-05] | 153 | 199 (≈ 475 µM) |  |  | 
O=C(N[C@H]1CCc2cc(CN3CCCCCC3)ccc2C1)c1ccc(COC2CCC2)cc1 [Example 6-06] | 75 | 28 (≈ 62.7 µM) |  |  | 
O=C(N[C@H]1CCc2cc(CN3CCCCCC3)ccc2C1)c1ccc(NC(=O)C2CCCC2)cc1 [Example 6-07] |  | < 4 |  | 332 | 
O=C(N[C@H]1CCc2cc(CN3CCCCCC3)ccc2C1)c1ccc(OCC2CCC2)cc1 [Example 6-08] | 168 | < 4 |  |  | 
O=C(N[C@H]1CCc2cc(CN3CCCC3)ccc2C1)c1ccc(-c2ccc(F)cc2)cc1 [Ref-1, reference compound] |  |  |  |  | 3 (≈ 7 µM)
CN(C(=O)c1ccc(-c2ccc(F)cc2)cc1)[C@H]1CCc2cc(CN3CCCC3)ccc2C1 [Ref-2, reference compound] |  |  |  |  | 7 (≈ 15.8 µM)

From patent US8841290B2, “Substituted tetrahydronaphthalenes, method for the production thereof, and use thereof as drugs” (Sanofi, priority 2009, dated 2014)
